Measurements: ChEMBL document CHEMBL3885881, “DrugMatrix”

Species on record: Rattus norvegicus
Assay: DrugMatrix - Regimen: Daily Repeat
Type: toxicity, organism-based, Sprague-Dawley
Design: regimen Daily Repeat, gender Male, age 6-8 weeks
Details: in vivo, po, route oral GAVAGE, vehicle .5 % CMC; for ABSOLUTE BASOPHIL / ABSOLUTE EOSINOPHIL / ABSOLUTE LYMPHOCYTE / ABSOLUTE MONOCYTE / ABSOLUTE SEGMENTED NEUTROPHIL / BASOPHIL / EOSINOPHIL / ERYTHROCYTE COUNT / HEMATOCRIT / HEMOGLOBIN / LEUKOCYTE COUNT / LYMPHOCYTE / MEAN CORPUSCULAR HEMOGLOBIN / MEAN CORPUSCULAR HEMOGLOBIN CONCENTRATION / MEAN CORPUSCULAR VOLUME / MONOCYTE / NEUTROPHIL / NUCLEATED RED BLOOD CELLS / PLATELET COUNT: tissue Blood; for ALANINE AMINOTRANSFERASE / ALBUMIN / ALKALINE PHOSPHATASE / ASPARTATE AMINOTRANSFERASE / BLOOD UREA NITROGEN / CARBON DIOXIDE / CHLORIDE / CHOLESTEROL / CREATINE PHOSPHOKINASE / CREATININE / GLUCOSE / LACTATE DEHYDROGENASE / LIPASE / PHOSPHORUS / POTASSIUM / SODIUM / TOTAL BILIRUBIN / TOTAL PROTEIN / URIC ACID: tissue Plasma
[1] = 200 mg/kg, 120 h, dose level Low, time 5 day
[2] = 2500 mg/kg, 72 h, dose level High, time 3 day
[3] = 2500 mg/kg, 120 h, dose level High, time 5 day

CCC1=C(C)CN(C(=O)NCCc2ccc(S(=O)(=O)NC(=O)N[C@H]3CC[C@H](C)CC3)cc2)C1=O [GLIMEPIRIDE]
ABSOLUTE BASOPHIL [1]: 0 CELLS/uL
ABSOLUTE EOSINOPHIL [1]: 0 CELLS/uL
ABSOLUTE LYMPHOCYTE [1]: 12890.33 CELLS/uL
ABSOLUTE MONOCYTE [1]: 43.33 CELLS/uL
ABSOLUTE SEGMENTED NEUTROPHIL [1]: 866.33 CELLS/uL
BASOPHIL [1]: 0%
EOSINOPHIL [1]: 0%
ERYTHROCYTE COUNT [1]: 5.84 x10E6/uL
HEMATOCRIT [1]: 36.5%
HEMOGLOBIN [1]: 14.63 G/DL
LEUKOCYTE COUNT [1]: 13.8 x10E3/uL
LYMPHOCYTE [1]: 93.33%
MEAN CORPUSCULAR HEMOGLOBIN [1]: 25.03 pg
MEAN CORPUSCULAR HEMOGLOBIN CONCENTRATION [1]: 40.1 G/DL
MEAN CORPUSCULAR VOLUME [1]: 62.43 fL
MONOCYTE [1]: 0.33%
NEUTROPHIL [1]: 6.33%
NUCLEATED RED BLOOD CELLS [1]: 0 /100WBC
PLATELET COUNT [1]: 1124.67 x10E3/uL
ALANINE AMINOTRANSFERASE [1]: 58.33 u/L
ALBUMIN [1]: 4.43 G/DL
ALKALINE PHOSPHATASE [1]: 402 u/L
ASPARTATE AMINOTRANSFERASE [1]: 81.33 u/L
BLOOD UREA NITROGEN [1]: 15.67 mg/dL
CARBON DIOXIDE [1]: 31.67 mmol/L
CHLORIDE [1]: 101.33 MEQ/L
CHOLESTEROL [1]: 75 mg/dL
CREATINE PHOSPHOKINASE [1]: 241.33 u/L
CREATININE [1]: 0.18 mg/dL
GLUCOSE [1]: 154 mg/dL
LACTATE DEHYDROGENASE [1]: 123.67 u/L
LIPASE [1]: 10 u/L
PHOSPHORUS [1]: 10.53 mg/dL
POTASSIUM [1]: 6.31 MEQ/L
SODIUM [1]: 143.8 MEQ/L
TOTAL BILIRUBIN [1]: 0.2 mg/dL
TOTAL PROTEIN [1]: 6.23 G/DL
URIC ACID [1]: 1.13 mg/dL
ABSOLUTE BASOPHIL [2]: 0 CELLS/uL
ABSOLUTE EOSINOPHIL [2]: 0 CELLS/uL
ABSOLUTE LYMPHOCYTE [2]: 11733.33 CELLS/uL
ABSOLUTE MONOCYTE [2]: 88 CELLS/uL
ABSOLUTE SEGMENTED NEUTROPHIL [2]: 778.67 CELLS/uL
BASOPHIL [2]: 0%
EOSINOPHIL [2]: 0%
ERYTHROCYTE COUNT [2]: 5.59 x10E6/uL
HEMATOCRIT [2]: 36.03%
HEMOGLOBIN [2]: 14.23 G/DL
LEUKOCYTE COUNT [2]: 12.6 x10E3/uL
LYMPHOCYTE [2]: 92.67%
MEAN CORPUSCULAR HEMOGLOBIN [2]: 25.47 pg
MEAN CORPUSCULAR HEMOGLOBIN CONCENTRATION [2]: 39.6 G/DL
MEAN CORPUSCULAR VOLUME [2]: 64.33 fL
MONOCYTE [2]: 0.67%
NEUTROPHIL [2]: 6.67%
NUCLEATED RED BLOOD CELLS [2]: 0.33 /100WBC
PLATELET COUNT [2]: 1148 x10E3/uL
ALANINE AMINOTRANSFERASE [2]: 60.33 u/L
ALBUMIN [2]: 4.2 G/DL
ALKALINE PHOSPHATASE [2]: 398.33 u/L
ASPARTATE AMINOTRANSFERASE [2]: 110 u/L
BLOOD UREA NITROGEN [2]: 16.67 mg/dL
CARBON DIOXIDE [2]: 28 mmol/L
CHLORIDE [2]: 102.67 MEQ/L
CHOLESTEROL [2]: 61 mg/dL
CREATINE PHOSPHOKINASE [2]: 802 u/L
CREATININE [2]: 0.14 mg/dL
GLUCOSE [2]: 165.67 mg/dL
LACTATE DEHYDROGENASE [2]: 190 u/L
LIPASE [2]: 10.33 u/L
PHOSPHORUS [2]: 10.87 mg/dL
POTASSIUM [2]: 5.99 MEQ/L
SODIUM [2]: 143.87 MEQ/L
TOTAL BILIRUBIN [2]: 0.1 mg/dL
TOTAL PROTEIN [2]: 5.73 G/DL
URIC ACID [2]: 1.47 mg/dL
ABSOLUTE BASOPHIL [3]: 0 CELLS/uL
ABSOLUTE EOSINOPHIL [3]: 80.67 CELLS/uL
ABSOLUTE LYMPHOCYTE [3]: 11006.67 CELLS/uL
ABSOLUTE MONOCYTE [3]: 128 CELLS/uL
ABSOLUTE SEGMENTED NEUTROPHIL [3]: 1118 CELLS/uL
BASOPHIL [3]: 0%
EOSINOPHIL [3]: 0.67%
ERYTHROCYTE COUNT [3]: 5.89 x10E6/uL
HEMATOCRIT [3]: 36.97%
HEMOGLOBIN [3]: 14.8 G/DL
LEUKOCYTE COUNT [3]: 12.33 x10E3/uL
LYMPHOCYTE [3]: 89.33%
MEAN CORPUSCULAR HEMOGLOBIN [3]: 25.13 pg
MEAN CORPUSCULAR HEMOGLOBIN CONCENTRATION [3]: 40.07 G/DL
MEAN CORPUSCULAR VOLUME [3]: 62.73 fL
MONOCYTE [3]: 1%
NEUTROPHIL [3]: 9%
NUCLEATED RED BLOOD CELLS [3]: 0 /100WBC
PLATELET COUNT [3]: 1082.67 x10E3/uL
ALANINE AMINOTRANSFERASE [3]: 74 u/L
ALBUMIN [3]: 4.47 G/DL
ALKALINE PHOSPHATASE [3]: 390 u/L
ASPARTATE AMINOTRANSFERASE [3]: 96.33 u/L
BLOOD UREA NITROGEN [3]: 19 mg/dL
CARBON DIOXIDE [3]: 28.67 mmol/L
CHLORIDE [3]: 101.33 MEQ/L
CHOLESTEROL [3]: 72 mg/dL
CREATINE PHOSPHOKINASE [3]: 380.67 u/L
CREATININE [3]: 0.18 mg/dL
GLUCOSE [3]: 132.33 mg/dL
LACTATE DEHYDROGENASE [3]: 150.33 u/L
LIPASE [3]: 8 u/L
PHOSPHORUS [3]: 11.9 mg/dL
POTASSIUM [3]: 5.72 MEQ/L
SODIUM [3]: 145.67 MEQ/L
TOTAL BILIRUBIN [3]: 0.23 mg/dL
TOTAL PROTEIN [3]: 6.3 G/DL
URIC ACID [3]: 1.5 mg/dL
